# Measured values: US20260315564A1, “THE USE OF TP3 (THYMOPENTIN ANALOG) BY INCREASING THE ACTIVITY AND NUMBER OF T-CELLS INVOLVED IN THE DEFENSE MECHANISM OF THE IMMUNE SYSTEM OF MAMMALS, FOR THE PREVENTION OR TREATMENT OF DISEASES TO EXTEND THE AVERAGE LIFESPAN” (priority 2023, published 2026)
# Marks after values point to notes of the source that are not given here. Residues, ends and D or L forms follow the SMILES beside them.
# Tests used:
# DTH reaction (PPD) = test: Delayed-type hypersensitivity (DTH) reaction in guinea pigs; format: in vivo; settings: n = 12/group, PPD 217.9
# [1] = system: Thy1+ cells in the spleens; test: Number of Thy1+ cells in spleens of Balb/c nu/nu mice after TP-fragment treatment; format: in vivo; settings: ip, n = 8/group, control 5.4
# Method: (§1) • D.1/Direct cytotoxicity test/for the detection of Thy, Lyt antigens (Fathman 1979, in Immunol Meth I. Eds. Lefkovits, Pernis, Acad Press, New York, pp. 212-213.) was used. Subpopulation ratios were determined from bone marrow cells, thymus, and spleen cells isolated from the lymphatic organs of mice. The cell suspensions (1.087-1.088 g/cm3) were centrifuged ona density gradient (2000 rpm, 20 minutes), and the cells were washed 3× with RPMI1640 medium containing 0.3% BSA, then adjusted to 107/ml. Thyl, Lyt 1, Lyt2 monoclonal antibodies (McAb/Ando I. (ICRF Human Tumor Immunol. UCM Med Sch. London) were obtained. 25 μl McAb and 25 ul cell suspension were incubated (60′, 40C1), after centrifugation (1250 rpm 10′), the cells were resuspended with 40 μul of diluted (1:50) rabbit complement, then incubated (370C, 60′). The cell suspensions were stained with 1:5 dilution of Eosin Y (Jansen). the ratio of live to non-living cells was determined.
# Mice were treated for 4 weeks 3 times a week (every other day) with TP fragments (10-9, 10-8, 10-7//10-3, 10-2, 10-1 M/animal ip. (Veys et al., 1983) at the end of the treatments ([…]), the mice were immunized (with 0.5 ml 1% BVVT suspension ip. The immune response was expressed in antibody titers as above).
# Effects of inducing renewal of the immune system and increasing activity in Balb/c nude mice The nude mouse is genetically deficient in the thymus. The […] atrophies over time after hormonal follow-up in mice and humans. As a result, the strength of the lymphoid, and within that of the T cells, decreases. All this means a definitive decrease in antigen recognition capacity. The increasing number and activity of immune cells in the thymus of nude mice is increasing health and quality of life span.
# The number of Thy1+ cells in the spleens of Balb/c nu/nu mice after TP-fragment treatment (Thy 1+ marker-bearing cells in mice correspond to human lymphocytes)
# peritoneal macrophages = test: Phagocytic function of peritoneal macrophages ex vivo in CFLP outbred mice (CY-immunosuppressed); settings: for macrophage phagocytosis ex vivo: CY-treated mice, n = 15, untreated control 194.5, CY 111.5
# Source text: 6.2./Examination of the Effect on the Phagocytic Function of Peritoneal Macrophages CFLP Outbred in Mice
# Macrophage phagocytosis ex vivo (X=yeast/100 cells)
# [2] = system: Active E-rosette forming cells (human lymphocytes); test: Active E-rosette forming cells; format: cell-based; settings: control 6.3 (TP5), 5.2 (TP3)
# Method: The test was carried out according to the method of (Wybran and Fundenberg 1973). 107/ml lymphocytes from either healthy blood donors or autoimmune patients were included in the tests. The effect of the substances was tested in the presence of 100 μl of […]. test compound. After an incubation period, 100 μul of cell suspension was placed on a glass slide, fixed for 3 minutes (with 50 μl of 3% glutaraldehyde solution), and stored in a humid chamber until evaluation.
# [3] = system: Thy1+, Lyt 1+ (helper) and Lyt 2+ (suppressor) cells; test: Thy1+ cells and helper/suppressor (Lyt 1/Lyt 2) cell ratio in bone marrow and spleen of Balb/c nu/nu mice; format: in vivo; settings: for Lyt 1/Lyt 2 (helper/suppressor cell ratio) / Thy1+ (%): 10^-5 M/mice/ip every other day for 3 weeks (9x)
# Method: as §1
# n=8/group; Treatment: 10^-5 M/mice/ip every other day for 3 weeks (9×/ip.)
smiles,measurement,setting,value
CC(C)[C@H](NC(=O)[C@H](CC(=O)O)NC(=O)[C@H](CCCCN)NC(=O)[C@@H](N)CCCN=C(N)N)C(=O)N[C@@H](Cc1ccc(O)cc1)C(=O)O [TP5] (H-RKDVY-OH),"DTH reaction, skin redness (bőrpir)",DTH reaction (PPD); 0.1 mg/kg/s.c.,127.7* mm/π
same,"DTH reaction, skin redness (bőrpir)",DTH reaction (PPD); 1.0 mg/kg/s.c.,158.1 mm/π
same,"DTH reaction, skin redness (bőrpir)",DTH reaction (PPD); 20.0 mg/kg/s.c.,194.6 mm/π
same,number of Thy1+ cells in spleen,[1]; 10^-1 M/mice,131*
same,number of Thy1+ cells in spleen,[1]; 10^-2 M/mice,129**
same,number of Thy1+ cells in spleen,[1]; 10^-3 M/mice,94*
same,number of Thy1+ cells in spleen,[1]; 10^-7 M/mice,125**
same,number of Thy1+ cells in spleen,[1]; 10^-8 M/mice,79*
same,number of Thy1+ cells in spleen,[1]; 10^-9 M/mice,9.5
same,phagocytic activity of macrophages,"peritoneal macrophages; CY immunosuppression, 1.0 mg/kg/sc (TP3), in words",ineffective
same,macrophage phagocytosis ex vivo,peritoneal macrophages; TP dose 0.1 (mg/kg/sc),149.6 yeast/100 cells
same,macrophage phagocytosis ex vivo,peritoneal macrophages; TP dose 1.0 (mg/kg/sc),123.1 yeast/100 cells
same,macrophage phagocytosis ex vivo,peritoneal macrophages; TP dose 10.0 (mg/kg/sc),95.6 yeast/100 cells
same,Active E-rosette forming cells,[2]; 10^-5 mol/l,8.6*
same,Active E-rosette forming cells,[2]; 10^-7 mol/l,7.5
same,Active E-rosette forming cells,[2]; 10^-9 mol/l,7.2
same,Active E-rosette forming cells,[2]; 10^-11 mol/l,10.7*
same,Active E-rosette forming cells,[2]; 10^-13 mol/l,7.9*
same,Lyt 1/Lyt 2 (helper/suppressor cell ratio),"[3]; bone marrow (Csontvelő), control 0.97",1.95
same,Thy1+ (%),"[3]; bone marrow (Csontvelő), control 3.7",47.3%
same,Lyt 1/Lyt 2 (helper/suppressor cell ratio),"[3]; spleen (Lép), control 1.10",2.48
same,Thy1+ (%),"[3]; spleen (Lép), control 5.4",71.0%
same,change in the spleen,"[3]; spleen, 10^-5 M/mice/ip, 9x",130%
